How the values were obtained:
Pacific oyster recruits = assay: Port Stephens Stage I field trial: Pacific oyster bycatch on coated oysters; assay type: in vivo; details: sub-tidal, double coated treatments, at either 10 or 15%
Text: After twelve weeks into the fouling trial there was a Pacific oyster settlement event. This enabled an observation of the efficacy of the different coatings as inhibitors of oyster bycatch. FIG. 9 presents the number of new Pacific oyster recruits that settled on the coated oysters.

[1] = test system: fouling organisms (predominantly barnacles, small percentages of bryozoans and oysters); assay: Port Stephens Stage I field trial: fouling cover on coated live oysters; assay type: in vivo; details: sub-tidal; for Mean fouling cover on coated oysters: 22 week trial, untreated control 50%
Text: The field trial testing the antifouling coatings on oysters at the Port Stephens Fisheries Centre was finalised on week 22 of the trial. This coincided with the slight increase, at varying rates, of the fouling cover on the treated oysters, as shown by FIG. 8.
The trial was testing the antifouling efficacy of two different active ingredients (AI's). Sea-Nine 211™ and the furanone 281, incorporated into carrier coatings when applied to live oysters. The AI's are being tested at concentrations ranging from 10-15% by weight of the carrier coating, using both single and double coats. The trial was conducted in both the inter-tidal and the sub-tidal. In addition to monitoring fouling, oyster mortality was monitored to determine if the coatings and methods used were harmful to the oysters.
Fouling cover was first measured 6 weeks after the start of the trial and has been measured every 3 weeks thereafter. Coated oysters were photographed in the field using a digital camera and fouling cover was measured in the laboratory using the digital images. Fouling cover was measured by estimating the percentage cover of fouling organisms on the oysters. The fouling cover observed was comprised predominantly of barnacles and a small percentages of bryozoans and oysters.

[2] = Stage II shellac trial: leaching / release of Sea-Nine 211 from shellac; assay type: physicochemical
Description: (§1) The shellac trial (stage II) was run for 30 weeks. This experiment was conducted to improve novel antifouling techniques for the aquaculture industry. Shellac was used as a carrier to coat Sea-Nine 211™ onto perspex tiles to determine whether Shellac with C9-211 was effective as an antifouling application and whether the rate at which Sea-Nine 211™ would leach out of the shellac formulation.
Measurements of leaching were carried out to determine the decrease in concentration of Sea-Nine 211™ in each treatment, as shown on FIG. 11. This indicates a regular rate of leaching over the 18 week trial period for each treatment of the same concentration. The rate of leaching is highest for the 15% Sea-Nine 211™ loadings (single and double), while decreasing with reduced compound loading.
The rate of compound release per day is important on determining the effectiveness of a given treatment over time (FIG. 12). Treatments 5% single layer, 10% single and double layer and 15% double layer had the highest initial drops with release rates from 1-2 μg/cm^2/day. The release rate varied for each treatment, over the following 16 weeks, but remained less than 2.0 μg/cm^2/day (FIG. 12).

fouling organisms = assay: Stage II shellac trial: fouling on coated perspex tiles; assay type: in vivo; details: shellac carrier, 10% double layer, 15% single and double layers, controls 75% fouling cover after 4 weeks
Description: as §1

CCCCCCCCn1sc(Cl)c(Cl)c1=O [Sea-Nine 211™, 4,5-dichloro-2-n-octyl-4-isothiazolin-3-one]
Inhibition of Pacific oyster bycatch (Pacific oyster recruits): almost totally inhibiting bycatch
Mean fouling cover on coated oysters ([1]; active ingredient 10%, single and double coatings): 20%
Mean fouling cover on coated oysters ([1]; active ingredient 15% in carrier coating, single and double coats): 15%
Inhibition of fouling cover ([1]; 15% single and double coats): 85%
Rate of leaching from shellac ([2]; 15% loadings (single and double), 18 week trial period): highest
Release rate from shellac ([2]; each treatment, over the following 16 weeks): less than 2.0 μg/cm^2/day
Release rate from shellac ([2]; initial, treatments 5% single layer, 10% single and double layer, 15% double layer): 1-2 μg/cm^2/day
Time tiles remained unfouled (fouling organisms): 30 weeks
